The results in this text go back to patent US8853418B2, “Cyclopentylpyrazoles as N-type calcium channel blockers” (Janssen Pharmaceutica NV, priority 2012, dated 2014).

Like-named read-outs stand apart in the source and are kept apart here.

Assay [1] has as its target N-type calcium channel (α1B (Cav2.2), β3 and α2δ subunits) (Homo sapiens, UniProt Q00975). The assay is described as follows: Functional Assay: Antagonism of N-Type Calcium Channel (FDSS calcium mobilization, KCl depolarization). The following applies: for IC50: HEK cell line, 50 mM KCl depolarization, six-point concentration-response, read-out: FDSS IC50. Format: cell-based. Summed up:
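HEK cells stably co-expressing α1B (Cav2.2), β3 and α2δ were loaded with calcium dye, then given compound with fluorescence recorded for 5 min before 50 mM KCl depolarisation and 3 min more reading. IC50 came from six-point curves of maximal fluorescence, normalised to KCl maximum and buffer minimum.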

A further assay has as its target N-type calcium channel (Homo sapiens, UniProt Q00975). Briefly: Automated Electrophysiology Assay (QPatch-HT whole-cell patch clamp; low- and high-frequency stimulation). It counts as cell-based.
Setting [2] is: high-frequency stimulation (15th pulse), read-out: QPatch at High Frequency % Inhibition.
Setting [3] is: low frequency, read-out: QPatch at Low Frequency % Inhibition.

N-type calcium channel (α1B (Cav2.2), β3 and α2δ subunits), sequence (Q00975 whole entry): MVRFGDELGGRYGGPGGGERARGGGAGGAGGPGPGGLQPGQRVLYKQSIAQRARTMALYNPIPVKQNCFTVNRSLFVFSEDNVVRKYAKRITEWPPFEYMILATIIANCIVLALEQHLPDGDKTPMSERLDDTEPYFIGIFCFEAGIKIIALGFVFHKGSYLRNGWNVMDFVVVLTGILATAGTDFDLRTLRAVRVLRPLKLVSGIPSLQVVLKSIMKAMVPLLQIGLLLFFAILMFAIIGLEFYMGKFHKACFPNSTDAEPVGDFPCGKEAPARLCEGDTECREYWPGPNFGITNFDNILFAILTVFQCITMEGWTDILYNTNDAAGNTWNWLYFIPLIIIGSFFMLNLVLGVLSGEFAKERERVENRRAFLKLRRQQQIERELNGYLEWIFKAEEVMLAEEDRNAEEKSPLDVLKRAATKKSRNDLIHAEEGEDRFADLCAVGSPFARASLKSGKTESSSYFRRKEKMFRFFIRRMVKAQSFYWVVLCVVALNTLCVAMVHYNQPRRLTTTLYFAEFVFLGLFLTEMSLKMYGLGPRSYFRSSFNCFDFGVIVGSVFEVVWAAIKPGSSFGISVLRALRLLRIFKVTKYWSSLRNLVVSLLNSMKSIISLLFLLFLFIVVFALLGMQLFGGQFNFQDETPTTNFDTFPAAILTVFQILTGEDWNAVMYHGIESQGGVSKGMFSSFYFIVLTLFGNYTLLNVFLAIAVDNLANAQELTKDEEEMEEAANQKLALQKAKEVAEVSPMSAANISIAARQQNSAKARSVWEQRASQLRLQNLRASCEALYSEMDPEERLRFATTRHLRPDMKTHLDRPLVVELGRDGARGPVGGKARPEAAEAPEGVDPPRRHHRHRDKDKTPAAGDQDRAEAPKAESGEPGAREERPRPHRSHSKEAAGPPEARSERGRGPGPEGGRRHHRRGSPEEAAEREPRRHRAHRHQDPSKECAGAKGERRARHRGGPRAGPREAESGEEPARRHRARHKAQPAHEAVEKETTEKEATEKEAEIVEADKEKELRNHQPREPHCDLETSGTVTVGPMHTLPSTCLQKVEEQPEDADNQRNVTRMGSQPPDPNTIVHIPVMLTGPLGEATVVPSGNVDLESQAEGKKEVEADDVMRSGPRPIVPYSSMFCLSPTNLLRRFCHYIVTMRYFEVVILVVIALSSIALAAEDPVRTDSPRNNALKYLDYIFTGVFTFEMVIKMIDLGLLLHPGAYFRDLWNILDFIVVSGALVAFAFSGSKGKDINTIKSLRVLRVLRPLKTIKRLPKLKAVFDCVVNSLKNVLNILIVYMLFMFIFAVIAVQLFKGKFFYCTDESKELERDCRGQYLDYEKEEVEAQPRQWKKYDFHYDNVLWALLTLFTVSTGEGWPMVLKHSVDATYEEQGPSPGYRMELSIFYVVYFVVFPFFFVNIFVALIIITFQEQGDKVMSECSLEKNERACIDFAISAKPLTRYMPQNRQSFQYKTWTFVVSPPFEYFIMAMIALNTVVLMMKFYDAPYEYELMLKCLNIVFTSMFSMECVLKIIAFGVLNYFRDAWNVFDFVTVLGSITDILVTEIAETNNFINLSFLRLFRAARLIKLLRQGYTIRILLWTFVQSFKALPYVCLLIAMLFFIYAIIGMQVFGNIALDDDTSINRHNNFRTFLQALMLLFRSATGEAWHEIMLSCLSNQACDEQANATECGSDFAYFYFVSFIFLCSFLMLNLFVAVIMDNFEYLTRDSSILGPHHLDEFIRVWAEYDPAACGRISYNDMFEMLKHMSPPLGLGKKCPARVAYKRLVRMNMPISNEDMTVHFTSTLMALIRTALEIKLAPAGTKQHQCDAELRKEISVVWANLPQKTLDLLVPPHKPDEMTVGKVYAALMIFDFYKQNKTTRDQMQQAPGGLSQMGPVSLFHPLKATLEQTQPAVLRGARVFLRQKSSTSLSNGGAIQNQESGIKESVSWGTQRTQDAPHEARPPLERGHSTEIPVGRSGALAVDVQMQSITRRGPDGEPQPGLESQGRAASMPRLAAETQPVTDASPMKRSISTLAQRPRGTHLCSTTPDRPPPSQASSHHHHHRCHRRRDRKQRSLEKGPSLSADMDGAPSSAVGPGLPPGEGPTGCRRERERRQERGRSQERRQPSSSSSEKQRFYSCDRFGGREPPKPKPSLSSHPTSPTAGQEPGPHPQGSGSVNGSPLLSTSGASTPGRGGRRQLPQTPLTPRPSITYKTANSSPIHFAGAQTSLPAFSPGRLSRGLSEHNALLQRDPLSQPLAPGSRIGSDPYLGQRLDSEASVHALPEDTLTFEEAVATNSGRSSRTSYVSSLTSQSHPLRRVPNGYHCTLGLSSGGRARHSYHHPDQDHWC
N-type calcium channel (α1B (Cav2.2), β3 and α2δ subunits), sequence (P54284 whole entry partner): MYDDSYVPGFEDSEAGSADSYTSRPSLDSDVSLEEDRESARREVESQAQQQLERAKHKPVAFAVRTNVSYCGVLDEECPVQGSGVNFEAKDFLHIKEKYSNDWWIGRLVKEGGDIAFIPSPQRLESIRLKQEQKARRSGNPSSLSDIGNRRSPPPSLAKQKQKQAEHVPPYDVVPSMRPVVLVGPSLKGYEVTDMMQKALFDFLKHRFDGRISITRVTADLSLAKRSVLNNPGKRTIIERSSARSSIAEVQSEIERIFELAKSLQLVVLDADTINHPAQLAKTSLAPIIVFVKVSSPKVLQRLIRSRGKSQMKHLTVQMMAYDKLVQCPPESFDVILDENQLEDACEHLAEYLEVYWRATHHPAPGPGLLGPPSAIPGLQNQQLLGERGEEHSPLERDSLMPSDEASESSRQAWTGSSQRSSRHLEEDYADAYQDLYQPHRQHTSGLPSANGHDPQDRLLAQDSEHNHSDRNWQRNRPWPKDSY
N-type calcium channel (α1B (Cav2.2), β3 and α2δ subunits), sequence (P54289 25-946 partner limits assumed): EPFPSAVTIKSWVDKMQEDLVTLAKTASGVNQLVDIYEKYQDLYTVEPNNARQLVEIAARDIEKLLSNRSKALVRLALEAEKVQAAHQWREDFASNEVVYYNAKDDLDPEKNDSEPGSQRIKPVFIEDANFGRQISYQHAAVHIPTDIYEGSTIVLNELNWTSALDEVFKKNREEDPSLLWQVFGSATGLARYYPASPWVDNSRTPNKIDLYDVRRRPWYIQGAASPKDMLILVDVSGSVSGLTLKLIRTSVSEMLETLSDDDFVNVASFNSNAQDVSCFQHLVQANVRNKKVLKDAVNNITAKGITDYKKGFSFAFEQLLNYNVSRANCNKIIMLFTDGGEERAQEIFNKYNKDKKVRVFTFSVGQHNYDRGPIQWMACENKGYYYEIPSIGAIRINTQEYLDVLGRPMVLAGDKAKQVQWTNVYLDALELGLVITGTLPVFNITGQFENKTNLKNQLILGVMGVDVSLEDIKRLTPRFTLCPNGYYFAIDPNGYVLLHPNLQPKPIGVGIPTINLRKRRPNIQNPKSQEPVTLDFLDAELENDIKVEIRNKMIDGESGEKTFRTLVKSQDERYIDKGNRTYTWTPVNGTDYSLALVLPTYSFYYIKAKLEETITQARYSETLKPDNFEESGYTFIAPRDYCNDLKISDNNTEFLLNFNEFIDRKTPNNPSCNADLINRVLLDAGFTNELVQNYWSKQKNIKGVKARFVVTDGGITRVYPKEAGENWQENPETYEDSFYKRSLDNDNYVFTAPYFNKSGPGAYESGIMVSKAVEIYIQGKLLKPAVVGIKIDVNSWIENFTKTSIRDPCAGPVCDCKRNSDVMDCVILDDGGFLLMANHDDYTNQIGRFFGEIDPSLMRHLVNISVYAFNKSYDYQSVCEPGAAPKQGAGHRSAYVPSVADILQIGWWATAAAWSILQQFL
N-type calcium channel (α1B (Cav2.2), β3 and α2δ subunits), sequence (P54289 947-1103 partner limits assumed): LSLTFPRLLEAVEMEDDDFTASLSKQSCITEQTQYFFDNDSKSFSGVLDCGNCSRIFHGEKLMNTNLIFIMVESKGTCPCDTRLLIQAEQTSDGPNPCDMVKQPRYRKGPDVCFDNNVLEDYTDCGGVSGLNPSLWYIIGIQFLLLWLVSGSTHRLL
N-type calcium channel, sequence (Q00975 whole entry): as the sequence (Q00975 whole entry) above
N-type calcium channel, sequence (P54284 whole entry partner): as the sequence (P54284 whole entry partner) above
N-type calcium channel, sequence (P54289 25-946 partner limits assumed): as the sequence (P54289 25-946 partner limits assumed) above
N-type calcium channel, sequence (P54289 947-1103 partner limits assumed): as the sequence (P54289 947-1103 partner limits assumed) above

Consider `COc1ccccc1-n1nc2c(c1-c1ccc(Cl)cc1)CC1(C2)OCCCO1` [Compound 54, 3-(4-chlorophenyl)-2-(2-methoxyphenyl)-2,6-dihydro-4H-spiro[cyclopenta[c]pyrazole-5,2′-[1,3]dioxane]], for which the inhibition at 0.33 µM in assay [1] amounted to 86%. Further, in assay [1], the IC50 amounted to 50 nM. The inhibition at 1 µM worked out at 67% on N-type calcium channel (setting [2]) and 55% at N-type calcium channel (setting [3]).
Regarding `COc1ccccc1-n1nc2c(c1-c1ccc(Cl)cc1)C[C@H](OC(=O)C1CCCC1)C2` [Compound 79, (5S)-3-(4-chlorophenyl)-2-(2-methoxyphenyl)-2,4,5,6-tetrahydrocyclopenta[c]pyrazol-5-yl cyclopentanecarboxylate], in assay [1], the inhibition at 0.33 µM was found to be 82% and the IC50 worked out at 75 nM. In addition, the inhibition at 0.1 µM at N-type calcium channel (setting [2]) came out at 11%. Also, at N-type calcium channel (setting [3]), the inhibition at 0.1 µM is -7%.
As to `COc1ccccc1-n1nc2c(c1-c1ccc(N(C)C)nc1)CC1(C2)OC(C)(C)C(C)(C)O1` [Compound 110, 5-[2-(2-methoxyphenyl)-4′,4′,5′,5′-tetramethyl-2,6-dihydro-4H-spiro[cyclopenta[c]pyrazole-5,2′-[1,3]dioxolan]-3-yl]-N,N-dimethylpyridin-2-amine], in assay [1], the inhibition at 0.33 µM worked out at 90% and the IC50 was 2.8 nM. Also, at N-type calcium channel (setting [2]), the inhibition at 0.1 µM was 1%. Besides, the inhibition at 0.1 µM on N-type calcium channel (setting [3]) is -9%.
As to `COc1ccccc1-n1nc2c(c1-c1ccc(C#N)cc1)C[C@H](n1cc(CC(C)C)nn1)C2` [Compound 127, 4-{(5S)-2-(2-methoxyphenyl)-5-[4-(2-methylpropyl)-1H-1,2,3-triazol-1-yl]-2,4,5,6-tetrahydrocyclopenta[c]pyrazol-3-yl}benzonitrile], in assay [1], the inhibition at 0.33 µM turned out to be 97%. The IC50 in assay [1] was found to be 17 nM. Further, the inhibition at 0.1 µM was 26% at N-type calcium channel (setting [2]) and 13% on N-type calcium channel (setting [3]).
In the same order, the values of `COc1ccccc1-n1nc2c(c1-c1ccc(Cl)cc1)CC1(C2)O[C@@H](C)C[C@H](C)O1` (stereo partly drawn) [Compound 101, (4′S,6′S)-3-(4-chlorophenyl)-2-(2-methoxyphenyl)-4′,6′-dimethyl-2,6-dihydro-4H-spiro[cyclopenta[c]pyrazole-5,2′-[1,3]dioxane]] are 98%, 27 nM, 40% and 3%.
As to `CCC(CC)C(=O)O[C@@H]1Cc2nn(-c3ccccc3OC)c(-c3ccc(Cl)cc3)c2C1` [Compound 70, (5S)-3-(4-chlorophenyl)-2-(2-methoxyphenyl)-2,4,5,6-tetrahydrocyclopenta[c]pyrazol-5-yl 2-ethylbutanoate], in assay [1], the inhibition at 0.33 µM came to 96% and the IC50 amounted to 15 nM. For the same compound, on N-type calcium channel (setting [2]), the inhibition at 0.1 µM was determined as 19%.
`COc1ccccc1-n1nc2c(c1-c1ccc(Cl)cc1)C[C@H](OC(C)C)C2` [Compound 67, (5S)-3-(4-chlorophenyl)-2-(2-methoxyphenyl)-5-(1-methylethoxy)-2,4,5,6-tetrahydrocyclopenta[c]pyrazole]: in assay [1], the inhibition at 0.33 µM came out at 100% and the IC50 was determined as 5.7 nM. Also, the inhibition at 0.1 µM at N-type calcium channel (setting [2]) was 61%. Moreover, the inhibition at 0.1 µM at N-type calcium channel (setting [3]) turned out to be 48%.
For the compound `COc1ccccc1-n1nc2c(c1-c1ccc(C)nc1)CC1(C2)OC(C)(C)C(C)(C)O1` [Compound 109, 2-(2-methoxyphenyl)-4′,4′,5′,5′-tetramethyl-3-(6-methylpyridin-3-yl)-2,6-dihydro-4H-spiro[cyclopenta[c]pyrazole-5,2′-[1,3]dioxolane]], in assay [1], the inhibition at 0.33 µM came to 84% and the IC50 worked out at 19 nM. In addition, the inhibition at 0.1 µM at N-type calcium channel (setting [2]) is 9%. Further, the inhibition at 0.1 µM on N-type calcium channel (setting [3]) stood at 8%.
On the same counts, the results for `COc1ccccc1-n1nc2c(c1-c1ccc(Cl)cc1)C[C@H](OC1CCCCC1)C2` [Compound 88, (5S)-3-(4-chlorophenyl)-5-(cyclohexyloxy)-2-(2-methoxyphenyl)-2,4,5,6-tetrahydrocyclopenta[c]pyrazole] are 83%, 43 nM, 33% and 22%.
Consider `CCOc1ccccc1-n1nc2c(c1-c1ccc(Cl)cc1)CC(n1ccnc1)C2` (stereo not shown) [Compound 39, 3-(4-chlorophenyl)-2-(2-ethoxyphenyl)-5-(1H-imidazol-1-yl)-2,4,5,6-tetrahydrocyclopenta[c]pyrazole], for which, in assay [1], the inhibition at 0.33 µM came out at 81% and the IC50 stood at 38 nM. At N-type calcium channel (setting [2]), the inhibition at 0.1 µM was 29%, the inhibition at 0.25 µM was 47% and the inhibition at 1 µM was 72%. In addition, at N-type calcium channel (setting [3]), the inhibition at 0.1 µM was found to be 13%, the inhibition at 0.25 µM was found to be 34% and the inhibition at 1 µM came out at 51%.
As to `COc1ccccc1-n1nc2c(c1-c1ccc(Cl)cc1)C[C@H](OC1CCCC1)C2` [Compound 90, (5S)-3-(4-chlorophenyl)-5-(cyclopentyloxy)-2-(2-methoxyphenyl)-2,4,5,6-tetrahydrocyclopenta[c]pyrazole], in assay [1], the inhibition at 0.33 µM is 89% and the IC50 was determined as 22 nM. For the same compound, at N-type calcium channel (setting [2]), the inhibition at 0.1 µM turned out to be 21%. For the same compound, the inhibition at 0.1 µM on N-type calcium channel (setting [3]) was determined as 10%.
On the same counts, the results for `COc1ccccc1-n1nc2c(c1-c1ccc(Cl)cc1)CC(N1CCOCC1)C2` (stereo not shown) [Compound 68, 3-(4-chlorophenyl)-2-(2-methoxyphenyl)-5-morpholin-4-yl-2,4,5,6-tetrahydrocyclopenta[c]pyrazole] are 95%, 16 nM, 31% and 33%.
In the case of `CCc1ccccc1-n1nc2c(c1-c1ccc(Cl)cc1)CC(CNC(=O)OC(C)(C)C)C2` (stereo not shown) [Compound 16, tert-butyl{[3-(4-chlorophenyl)-2-(2-ethylphenyl)-2,4,5,6-tetrahydrocyclopenta[c]pyrazol-5-yl]methyl}carbamate], in assay [1], the IC50 came to 130 nM. The figures for the inhibition at 1 µM at N-type calcium channel (setting [2]) and at N-type calcium channel (setting [3]) were 43% and 19%, respectively.
For `CCC(CC)C(=O)O[C@H]1Cc2nn(-c3ccccc3OC)c(-c3ccc(Cl)cc3)c2C1` [Compound 55, (5R)-3-(4-chlorophenyl)-2-(2-methoxyphenyl)-2,4,5,6-tetrahydrocyclopenta[c]pyrazol-5-yl 2-ethylbutanoate], in assay [1], the inhibition at 0.33 µM was determined as 95% and the IC50 stood at 11 nM. Further, at N-type calcium channel (setting [2]), the inhibition at 0.03 µM was 19%, the inhibition at 0.1 µM stood at 29% and the inhibition at 1 µM stood at 79%. For the same compound, on N-type calcium channel (setting [3]), the inhibition at 0.03 µM was determined as 15%, the inhibition at 0.1 µM came out at 12% and the inhibition at 1 µM amounted to 57%.
For the compound `CCOc1ccccc1-n1nc2c(c1-c1ccc(Cl)cc1)CC(OC(=O)N1CCOCC1)C2` (stereo not shown) [Compound 31, 3-(4-chlorophenyl)-2-(2-ethoxyphenyl)-2,4,5,6-tetrahydrocyclopenta[c]pyrazol-5-yl morpholine-4-carboxylate], the IC50 in assay [1] worked out at 18 nM. Also, the inhibition at 0.1 µM came to 22% at N-type calcium channel (setting [2]) and 14% on N-type calcium channel (setting [3]).
Turning to `CC(C)S(=O)(=O)N(C)[C@@H]1Cc2nn(-c3cccc4c3OCC4)c(-c3ccc(Cl)cc3)c2C1` [Compound 51, N-[(5S)-3-(4-chlorophenyl)-2-(2,3-dihydro-1-benzofuran-7-yl)-2,4,5,6-tetrahydrocyclopenta[c]pyrazol-5-yl]-N-methylpropane-2-sulfonamide], in assay [1], the inhibition at 0.33 µM stood at 94% and the IC50 worked out at 34 nM. The inhibition at 1 µM at N-type calcium channel (setting [2]) came to 66%. Also, the inhibition at 1 µM on N-type calcium channel (setting [3]) was 49%.
In the same order, the values of `COc1ccccc1-n1nc2c(c1-c1ccc(Cl)cc1)CC(CCNS(C)(=O)=O)C2` (stereo not shown) [Compound 11, N-{2-[3-(4-chlorophenyl)-2-(2-methoxyphenyl)-2,4,5,6-tetrahydrocyclopenta[c]pyrazol-5-yl]ethyl}methanesulfonamide] are 99%, 73 nM, 28% and 29%.
As for `CCOc1ccccc1-n1nc2c(c1-c1ccc(Cl)cc1)CC(=O)C2` [Compound 36, 3-(4-chlorophenyl)-2-(2-ethoxyphenyl)-2,6-dihydrocyclopenta[c]pyrazol-5(4H)-one], the IC50 in assay [1] was determined as 29 nM. The inhibition at 0.1 µM on N-type calcium channel (setting [2]) is 26%; at N-type calcium channel (setting [3]), 18%.
In the case of `CCc1nc(CC)n([C@@H]2Cc3nn(-c4ccccc4OC)c(-c4ccc(C#N)cc4)c3C2)c1CC` [Compound 137, 4-[(5S)-2-(2-methoxyphenyl)-5-(2,4,5-triethyl-1H-imidazol-1-yl)-2,4,5,6-tetrahydrocyclopenta[c]pyrazol-3-yl]benzonitrile], the inhibition at 0.33 µM in assay [1] is 49%.
On to `COc1ccccc1-n1nc2c(c1-c1ccc(Cl)cc1)CC(N1CCCC1)C2` (stereo not shown) [Compound 122, 3-(4-chlorophenyl)-2-(2-methoxyphenyl)-5-pyrrolidin-1-yl-2,4,5,6-tetrahydrocyclopenta[c]pyrazole], for which the inhibition at 0.33 µM in assay [1] was found to be 33%.
As for `COc1ccccc1-n1nc2c(c1-c1ccc(Cl)cc1)C/C(=N/O)C2` [Compound 53, (5Z)-3-(4-chlorophenyl)-2-(2-methoxyphenyl)-2,6-dihydrocyclopenta[c]pyrazol-5(4H)-one oxime], in assay [1], the inhibition at 0.33 µM was found to be 31%.
